According to US10189854B2, “Substituted pyrimidine compounds” (Grünenthal GmbH, priority 2014, dated 2019):
Where a name gives a salt, the structure may show the parent alone.

target: human PDE4B1 (Homo sapiens (Human), UniProt Q07343); assay: TR-FRET assay using the LANCE Ultra cAMP kit to determine the activity of hPDE4B1; type: biochemical; conditions: IC50 inhibition of PDE4B, mean
In short: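 Recombinant human PDE4B1 (Sf9-expressed, 0.96 U) incubated with compound and 500 nM cAMP in 50 mM Tris-HCl, 50 mM MgCl2, 5 mM DTT, pH 8.5, 30 min at room temperature. Residual cAMP read by TR-FRET (665/620 nm ratio) after IBMX stop. IC50 from ten-concentration curves as % inhibition of control.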

Sequence of human PDE4B1 (Q07343 whole entry): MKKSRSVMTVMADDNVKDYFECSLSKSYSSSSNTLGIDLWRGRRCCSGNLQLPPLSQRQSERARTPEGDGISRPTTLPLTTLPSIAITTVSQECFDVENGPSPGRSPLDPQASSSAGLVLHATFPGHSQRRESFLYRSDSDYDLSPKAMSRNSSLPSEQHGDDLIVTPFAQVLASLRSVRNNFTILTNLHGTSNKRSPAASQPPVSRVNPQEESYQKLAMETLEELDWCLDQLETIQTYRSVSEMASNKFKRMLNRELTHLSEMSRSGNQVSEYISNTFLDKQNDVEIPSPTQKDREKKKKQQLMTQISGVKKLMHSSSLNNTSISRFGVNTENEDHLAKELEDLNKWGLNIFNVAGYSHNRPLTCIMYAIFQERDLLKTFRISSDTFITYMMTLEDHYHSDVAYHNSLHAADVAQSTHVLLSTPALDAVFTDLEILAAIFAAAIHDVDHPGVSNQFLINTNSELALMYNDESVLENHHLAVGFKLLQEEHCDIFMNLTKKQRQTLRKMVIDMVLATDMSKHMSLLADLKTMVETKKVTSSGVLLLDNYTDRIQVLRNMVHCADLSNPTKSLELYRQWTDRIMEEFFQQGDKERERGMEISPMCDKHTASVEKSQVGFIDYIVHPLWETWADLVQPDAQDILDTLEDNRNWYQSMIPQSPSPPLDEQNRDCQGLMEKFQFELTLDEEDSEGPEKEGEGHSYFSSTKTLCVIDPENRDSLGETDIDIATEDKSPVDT

IC50 [µM] | Compound
< 0.1 | Cc1nc(-c2cnc(N3CC4(CC4)c4ccc(C(=O)N(C)CCO)cc43)nc2)cs1 [Compound 324, N-(2-Hydroxy-ethyl)-N-methyl-1-[5-(2-methyl-thiazol-4-yl)-pyrimidin-2-yl]-spiro[1,2-dihydro-indole-3,1′-cyclopropane]-6-carboxylic acid amide]
< 0.1 | CN(CCO)C(=O)c1ccc2c(c1)N(c1ncc(-c3cc(C(F)(F)F)ccc3F)cn1)CC21CC1 [Compound 365, 1-[5-[2-Fluoro-5-(trifluoromethyl)-phenyl]-pyrimidin-2-yl]-N-(2-hydroxy-ethyl)-N-methyl-spiro[1,2-dihydro-indole-3,1′-cyclopropane]-6-carboxylic acid amide]
< 0.1 | CCc1ccnc(-c2cnc(N3CC4(CC4)c4ccc(C(=O)N(C)CC(N)=O)cc43)nc2)c1 [Compound 308, N-(Carbamoyl-methyl)-1-[5-(4-ethyl-pyridin-2-yl)-pyrimidin-2-yl]-N-methyl-spiro[1,2-dihydro-indole-3,1′-cyclopropane]-6-carboxylic acid amide]
< 0.1 | CN(CCO)C(=O)c1ccc2c(c1)N(c1ncc(-c3cc(C4(O)CC4)ccc3F)cn1)CC21CC1 [Compound 363, 1-[5-[2-Fluoro-5-(1-hydroxy-cyclopropyl)-phenyl]-pyrimidin-2-yl]-N-(2-hydroxy-ethyl)-N-methyl-spiro[1,2-dihydro-indole-3,1′-cyclopropane]-6-carboxylic acid amide]
< 0.1 | CN(CCO)C(=O)c1ccc2c(c1)N(c1ncc(-c3cccc(O)n3)cn1)CC21CC1 [Compound 280, N-(2-Hydroxy-ethyl)-1-[5-(6-hydroxy-pyridin-2-yl)-pyrimidin-2-yl]-N-methyl-spiro[1,2-dihydro-indole-3,1′-cyclopropane]-6-carboxylic acid amide]
< 0.1 | Cc1cnnc(-c2cnc(N3CC4(CC4)c4ccc(C(=O)N(C)CCO)cc43)nc2)c1 [Compound 290, N-(2-hydroxyethyl)-N-methyl-1′-(5-(5-methylpyridazin-3-yl)pyrimidin-2-yl)spiro[cyclopropane-1,3′-indoline]-6′-carboxamide]
< 0.1 | CN(CCO)C(=O)c1ccc2c(c1)N(c1ncc(-c3ccc(F)cn3)cn1)CC21CC1 [Compound 232, 1-[5-(5-Fluoro-pyridin-2-yl)-pyrimidin-2-yl]-N-(2-hydroxy-ethyl)-N-methyl-spiro[1,2-dihydro-indole-3,1′-cyclopropane]-6-carboxylic acid amide]
< 0.1 | CN(CC(N)=O)C(=O)c1ccc2c(c1)N(c1ncc(-c3ccccn3)cn1)CC21CC1 [Compound 320, N-(2-amino-2-oxoethyl)-N-methyl-1′-(5-(pyridin-2-yl)pyrimidin-2-yl)spiro[cyclopropane-1,3′-indoline]-6′-carboxamide]
< 0.1 | CN(CCO)C(=O)c1ccc2c(c1)N(c1ncc(-c3cc(C4CC4)ccn3)cn1)CC21CC1 [Compound 254, 1-[5-(4-Cyclopropyl-pyridin-2-yl)-pyrimidin-2-yl]-N-(2-hydroxy-ethyl)-N-methyl-spiro[1,2-dihydro-indole-3,1′-cyclopropane]-6-carboxylic acid amide]
< 0.1 | O=C(c1ccc2c(c1)N(c1ncc(-c3cc(NCC4CC4)ccn3)cn1)CC21CC1)N1CCOCC1 [Compound 295, [1-[5-[4-(Cyclopropyl-methylamino)-pyridin-2-yl]-pyrimidin-2-yl]-spiro[1,2-dihydro-indole-3,1′-cyclopropane]-6-yl]-morpholin-4-yl-methanone]
0.1 to 1 | O=C(c1ccc2c(c1)N(c1ncc(-c3ccccc3F)cn1)CC21CC1)N1CCC2(CCCN2)C1 (stereo not shown) [Compound 226, (1,-Diazaspiro[4.4]nonan-7-yl)-[1-[5-(2-fluorophenyl)-pyrimidin-2-yl]-spiro[1,2-dihydro-indole-3,1′-cyclopropane]-6-yl]-methanone]
< 0.1 | CCc1ccnc(-c2cnc(N3CC4(CC4)c4ccc(C(=O)N5CCNC(=O)C5)cc43)nc2)c1 [Compound 243, 4-[1-[5-(4-Ethyl-pyridin-2-yl)-pyrimidin-2-yl]-spiro[1,2-dihydro-indole-3,1′-cyclopropane]-6-carbonyl]-piperazin-2-one]
< 0.1 | CN(CCO)C(=O)c1ccc2c(c1)N(c1ncc(-c3ccnc(F)c3)cn1)CC21CC1 [Compound 231, 1-[5-(2-Fluoro-pyridin-4-yl)-pyrimidin-2-yl]-N-(2-hydroxy-ethyl)-N-methyl-spiro[1,2-dihydro-indole-3,1′-cyclopropane]-6-carboxylic acid amide]
< 0.1 | CN(CCO)C(=O)c1ccc2c(c1)N(c1ncc(-c3cccc(C4CC4)n3)cn1)CC21CC1 [Compound 269, 1-[5-(6-Cyclopropyl-pyridin-2-yl)-pyrimidin-2-yl]-N-(2-hydroxy-ethyl)-N-methyl-spiro[1,2-dihydro-indole-3,1′-cyclopropane]-6-carboxylic acid amide]
< 0.1 | CN(CCO)C(=O)c1ccc2c(c1)N(c1ncc(-c3cc(N)ccn3)cn1)CC21CC1 [Compound 251, 1-[5-(4-Amino-pyridin-2-yl)-pyrimidin-2-yl]-N-(2-hydroxy-ethyl)-N-methyl-spiro[1,2-dihydro-indole-3,1′-cyclopropane]-6-carboxylic acid amide]
0.1 to 1 | C[C@H](O)CN1CCN(C(=O)c2ccc3c(c2)N(c2ncc(-c4ccccc4F)cn2)CC32CC2)CC1 [Compound 240, [1-[5-(2-Fluorophenyl)-pyrimidin-2-yl]-spiro[1,2-dihydro-indole-3,1′-cyclopropane]-6-yl]-[4-[(2S)-2-hydroxy-propyl]-piperazin-1-yl]-methanone]
< 0.1 | CN(CCO)C(=O)c1ccc2c(c1)N(c1ncc(-c3cc(N4CCCC4)ccn3)cn1)CC21CC1 [Compound 315, N-(2-Hydroxy-ethyl)-N-methyl-1-[5-(4-pyrrolidin-1-yl-pyridin-2-yl)-pyrimidin-2-yl]-spiro[1,2-dihydro-indole-3,1′-cyclopropane]-6-carboxylic acid amide]
< 0.1 | COc1ccnc(-c2cnc(N3CC4(CC4)c4ccc(C(=O)N(C)CC(N)=O)cc43)nc2)c1 [Compound 321, N-(Carbamoyl-methyl)-1-[5-(4-methoxy-pyridin-2-yl)-pyrimidin-2-yl]-N-methyl-spiro[1,2-dihydro-indole-3,1′-cyclopropane]-6-carboxylic acid amide]
< 0.1 | N[C@@H]1CCN(C(=O)c2ccc3c(c2)N(c2ncc(-c4cc(C5CC5)ccn4)cn2)CC32CC2)C1 [Compound 335, (R)-(3-aminopyrrolidin-1-yl)(1′-(5-(4-cyclopropylpyridin-2-yl)pyrimidin-2-yl)spiro[cyclopropane-1,3′-indolin]-6′-yl)methanone]
< 0.1 | CN(CCO)C(=O)c1ccc2c(c1)N(c1ncc(-c3cc(F)ccn3)cn1)CC21CC1 [Compound 233, 1-[5-(4-Fluoro-pyridin-2-yl)-pyrimidin-2-yl]-N-(2-hydroxy-ethyl)-N-methyl-spiro[1,2-dihydro-indole-3,1′-cyclopropane]-6-carboxylic acid amide]
< 0.1 | CC(C)c1ccnc(-c2cnc(N3CC4(CC4)c4ccc(C(=O)N5CC[C@@H](N)C5)cc43)nc2)c1 [Compound 331, [(3R)-3-Amino-pyrrolidin-1-yl]-[1-[5-(4-isopropyl-pyridin-2-yl)-pyrimidin-2-yl]-spiro[1,2-dihydro-indole-3,1′-cyclopropane]-6-yl]-methanone]
< 0.1 | O=C(c1ccc2c(c1)N(c1ncc(-c3cccnn3)cn1)CC21CC1)N1CC2CC1CN2 (stereo not shown) [Compound 274, (2,5-Diazabicyclo[2.2.1]heptan-2-yl)-[1-(5-pyridazin-3-yl-pyrimidin-2-yl)-spiro[1,2-dihydro-indole-3,1′-cyclopropane]-6-yl]-methanone hydrochloride]
< 0.1 | Cc1cc(N)cc(-c2cnc(N3CC4(CC4)c4ccc(C(=O)N5CCOCC5)cc43)nc2)n1 [Compound 259, [1-[5-(4-Amino-6-methyl-pyridin-2-yl)-pyrimidin-2-yl]-spiro[1,2-dihydro-indole-3,1′-cyclopropane]-6-yl]-morpholin-4-yl-methanone]
< 0.1 | C[C@@H](O)CN(C)C(=O)c1ccc2c(c1)N(c1ncc(-c3ccccc3F)cn1)CC21CC1 [Compound 283, 1-[5-(2-Fluorophenyl)-pyrimidin-2-yl)-N-[(2R)-2-hydroxy-propyl]-N-methyl-spiro[1,2-dihydro-indole-3,1′-cyclopropane]-6-carboxylic acid amide]
< 0.1 | COc1ccnc(-c2cnc(N3CC4(CC4)c4ccc(C(=O)N(C)CCO)cc43)nc2)c1 [Compound 224, N-(2-hydroxyethyl)-1′-(5-(4-methoxypyridin-2-yl)pyrimidin-2-yl)-N-methylspiro[cyclopropane-1,3′-indoline]-6′-carboxamide]
< 0.1 | C[C@H](O)CN(C)C(=O)c1ccc2c(c1)N(c1ncc(-c3ccccc3F)cn1)CC21CC1 [Compound 284, 1-[5-(2-Fluorophenyl)-pyrimidin-2-yl]-N-[(2S)-2-hydroxy-propyl]-N-methyl-spiro[1,2-dihydro-indole-3,1′-cyclopropane]-6-carboxylic acid amide]
< 0.1 | CN(CCO)C(=O)c1ccc2c(c1)N(c1ncc(-c3nc(CO)cs3)cn1)CC21CC1 [Compound 357, N-(2-Hydorxy-ethyl)-1-[5-[4-(hydroxymethyl)-thiazol-2-yl]-pyrimidin-2-yl]-N-methyl-spiro[1,2-dihydro-indole-3,1′-cyclopropane]-6-carboxylic acid amide]
0.1 to 1 | O=C(c1ccc2c(c1)N(c1ncc(-c3ccccc3F)cn1)CC21CC1)N1C[C@H]2C[C@@H]1CN2 [Compound 220, [(1R,4R)-2,5-Diazabicyclo[2.2.1]heptan-2-yl]-[1-[5-(2-fluorophenyl)-pyrimidin-2-yl]spiro[1,2-dihydro-indole-3,1′-cyclopropane]-6-yl]-methanone]
